ChEMBL document CHEMBL1155864, “N-Acyl-3-amino-5H-furanone derivatives as new inhibitors of LuxR-dependent quorum sensing: Synthesis, biological evaluation and binding mode study” (Bioorg Med Chem Lett, 2008)
Active and inactive are the calls of the source. No cut-off for these calls is given here.

Columns and labels:
[1] = target: T1, Transcriptional activator protein LuxR (Aliivibrio fischeri) (UniProt P12746); assay: Inhibition of LuxR-dependent Vibrio fischeri quorum sensing assessed as reduction in 3-oxo-hexanoyihomoserine-induced bioluminescence upto 100 uM
T1 sequence (whole entry): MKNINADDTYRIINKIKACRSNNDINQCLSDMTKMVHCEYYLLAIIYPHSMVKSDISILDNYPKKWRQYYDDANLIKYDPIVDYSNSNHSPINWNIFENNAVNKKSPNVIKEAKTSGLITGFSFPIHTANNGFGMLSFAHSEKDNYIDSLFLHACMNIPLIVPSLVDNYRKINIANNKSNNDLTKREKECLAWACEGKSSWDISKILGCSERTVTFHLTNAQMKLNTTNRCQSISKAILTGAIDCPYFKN

[2] = target: T2, Transcriptional activator protein LuxR (Aliivibrio fischeri, UniProt P12746); assay: Inhibition of LuxR-dependent Vibrio fischeri quorum sensing assessed as reduction in 3-oxo-hexanoyihomoserine-induced bioluminescence
T2 sequence (P12746 whole entry): T1 sequence (whole entry)

Structure (SMILES)	Activity [1]	IC50 [2] [µM]
O=C(CCCc1ccccc1)NC1=CCOC1=O	inactive	–
CCCCCC(=O)NC1=CCOC1=O	–	85
O=C(CCCc1ccccc1)NC1=C(Br)COC1=O	–	84
CCCC(=O)CC(=O)NC1=CCOC1=O	–	55
CCCCCC(=O)NC1=C(Br)COC1=O	–	6.5
CCCCCC(=O)NC1=C(Cl)COC1=O	–	6.9
